Values quoted from earlier work as cited in patent US20080187998A1, “Sulfonamide-based oligomers and polymers for destabilization of biological membranes” (UNIVERSITY OF UTAH RESEARCH FOUNDATION, priority 2007, published 2008).

Conditions: monomeric sulfonamide

Row | pKa | Compound
1 | 6.1 | COc1cc(NS(=O)(=O)c2ccc(N)cc2)nc(OC)n1 [SDM, sulfadimethoxine]
2 | 6.4-6.5 | Nc1ccc(S(=O)(=O)Nc2ncccn2)cc1 [SDZ, sulfadiazine]
3 | 5.45 | Cc1nnc(NS(=O)(=O)c2ccc(N)cc2)s1 [SMT, sulfamethizole]
4 | 7.0 | Cc1ccnc(NS(=O)(=O)c2ccc(N)cc2)n1 [sulfamerazine]
